The target in this assay is T1, hFXR (Homo sapiens, UniProt Q96RI1).
T1 construct: expressed in transfected cells; host or cells: CV-1 cells
T1 sequence (Q96RI1 1-486): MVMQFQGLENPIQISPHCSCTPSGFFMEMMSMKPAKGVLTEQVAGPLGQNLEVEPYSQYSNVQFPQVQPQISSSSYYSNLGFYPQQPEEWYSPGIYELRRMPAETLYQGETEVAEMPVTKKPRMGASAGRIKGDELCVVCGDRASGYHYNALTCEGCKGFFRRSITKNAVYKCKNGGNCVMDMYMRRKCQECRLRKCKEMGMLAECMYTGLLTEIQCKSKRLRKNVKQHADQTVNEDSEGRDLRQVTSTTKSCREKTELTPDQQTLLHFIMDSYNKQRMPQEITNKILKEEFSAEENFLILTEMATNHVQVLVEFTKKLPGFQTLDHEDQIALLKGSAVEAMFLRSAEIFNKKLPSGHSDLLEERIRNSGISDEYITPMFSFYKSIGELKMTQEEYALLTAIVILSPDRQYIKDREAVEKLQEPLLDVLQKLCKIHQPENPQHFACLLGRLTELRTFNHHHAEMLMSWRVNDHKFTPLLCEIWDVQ
T1 sequence (P19793 1-462 partner): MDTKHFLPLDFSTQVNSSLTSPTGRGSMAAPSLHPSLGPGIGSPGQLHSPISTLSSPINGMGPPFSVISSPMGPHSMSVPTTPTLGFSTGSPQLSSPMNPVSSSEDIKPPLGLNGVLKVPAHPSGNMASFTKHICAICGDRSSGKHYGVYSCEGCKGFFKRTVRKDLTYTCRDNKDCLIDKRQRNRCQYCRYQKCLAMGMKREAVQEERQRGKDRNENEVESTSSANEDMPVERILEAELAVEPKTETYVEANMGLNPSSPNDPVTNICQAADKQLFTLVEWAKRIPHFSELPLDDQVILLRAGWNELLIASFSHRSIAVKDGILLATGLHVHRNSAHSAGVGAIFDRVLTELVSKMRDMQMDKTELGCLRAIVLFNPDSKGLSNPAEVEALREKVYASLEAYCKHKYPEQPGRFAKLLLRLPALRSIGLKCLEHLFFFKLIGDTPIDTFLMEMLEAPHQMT
Nature of the assay: In Vitro FXR Assay (TK): TK-ECRE-luc reporter in transfected CV-1 cells. Format: cell-based. To be noted: CV-1 cells transfected with hFXR, hRXR, pCMX-YFP, 18 hrs incubation, luminescence. The essentials:
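First, CV-1 cells were grown overnight in stripped-serum DMEM, then transfected for 18 h with expression plasmids for human FXR and RXR plus a TK-ECRE luciferase reporter and YFP. Next, serially diluted compounds were applied for 18 h, and lysates were read by luminescence.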

One may read the EC50 as the concentration that produces a half-maximal response. A high value points to weaker potency. `COc1ccc(C23CCC(CN(c4cc(-c5coc(C(C)(C)C)n5)ccn4)C(=O)[C@H]4CC[C@H](OC(=O)N5CC(O)C5)CC4)(CC2)CC3)cc1C` [Compound 3.10, 4-((4-(2-(tert-Butyl)oxazol-4-yl)pyridin-2-yl)((4-(4-methoxy-3-methylphenyl)bicyclo[2.2.2]octan-1-yl)methyl)carbamoyl)cyclohexyl 3-hydroxyazetidine-trans-1-carboxylate] came in with an EC50 not above 10 nM.

`COc1ccc(C23CCC(CN(c4cc(-c5cnn(C(C)(C)C)c5)ccn4)C(=O)[C@H]4CC[C@H](OC(=O)NC5CC[S+]([O-])CC5)CC4)(CC2)CC3)cc1C` (some centres unmarked) [Compound 2.38, (1r,4r)-4-((4-(1-(tert-Butyl)-1H-pyrazol-4-yl)pyridin-2-yl)((4-(4-methoxy-3-methylphenyl)bicyclo[2.2.2]octan-1-yl)methyl)carbamoyl)cyclohexyl (1-oxidotetrahydro-2H-thiopyran-4-yl)carbamate]: the EC50 lay in the range of 10 to 1000 nM.

In turn, `COc1ccc(C23CCC(CN(c4cc(-c5cnc(C(C)(C)C)s5)ccn4)C(=O)[C@H]4CC[C@H](OC(=O)NCCCO)CC4)(CC2)CC3)cc1C` [Compound 2.02, 4-((4-(2-(tert-Butyl)thiazol-5-yl)pyridin-2-yl)((4-(4-methoxy-3-methylphenyl)bicyclo[2.2.2]octan-1-yl)methyl)carbamoyl) (trans-cyclohexyl) (3-hydroxypropyl)carbamate] returned an EC50 not above 10 nM.

The molecule `COc1ccc([C@H]2CC[C@H](CN(c3cc(-c4cnc(C(C)(C)C)s4)ccn3)C(=O)[C@H]3CC[C@H](OC(=O)N4CC(O)C4(C)C)CC3)CC2)cc1C` (stereo partly drawn) [Compound 1.02, trans-4-((4-(2-(tert-Butyl)thiazol-5-yl)pyridin-2-yl)(((trans)-4-(4-methoxy-3-methylphenyl)cyclohexyl)methyl)carbamoyl) cyclohexyl 3-hydroxy-2,2-dimethylazetidine-1-carboxylate] showed an EC50 of 10 to 1000 nM.

`COc1ccc(C23CCC(CN(c4cc(-c5cnn(C(C)(C)C)c5)ccn4)C(=O)[C@H]4CC[C@H](OC(=O)NC5CCS(=O)(=O)CC5)CC4)(CC2)CC3)cc1C` [Compound 2.39, 4-((4-(1-(tert-Butyl)-1H-pyrazol-4-yl)pyridin-2-yl)((4-(4-methoxy-3-methylphenyl)bicyclo[2.2.2]octan-1-yl)methyl)carbamoyl) cyclohexyl trans-(1,1-dioxidotetrahydro-2H-thiopyran-4-yl)carbamate] had an EC50 of 10 to 1000 nM.

Regarding `CCC(C)(C)n1cc(-c2ccnc(N(CC34CCC(c5ccc(OC)c(C)c5)(CC3)CC4)C(=O)[C@H]3CC[C@H](OC(=O)N4CC(O)C4)CC3)c2)cn1` [Compound 4, 4-(((4-(4-Methoxy-3-methylphenyl)bicyclo[2.2.2]octan-1-yl)methyl)(4-(1-(tert-pentyl)-1H-pyrazol-4-yl)pyridin-2-yl)carbamoyl) cyclohexyl trans-3-hydroxyazetidine-1-carboxylate], the EC50 was not above 10 nM.

Regarding `COc1ccc(C23CCC(CN(c4cc(-c5cnn(C(C)(C)C)c5)ccn4)C(=O)[C@H]4CC[C@H](OC(=O)NCCO)CC4)(CC2)CC3)cc1C` [Compound 2.30, 4-((4-(1-(tert-Butyl)-1H-pyrazol-4-yl)pyridin-2-yl)((4-(4-methoxy-3-methylphenyl)bicyclo[2.2.2]octan-1-yl)methyl)carbamoyl)cyclohexyl (2-hydroxyethyl)trans-carbamate], the EC50 was not above 10 nM.

On to `COc1ccc(C23CCC(CN(c4cc(-c5coc(C(C)(C)C)n5)ccn4)C(=O)[C@H]4CC[C@H](OC(=O)N5CCC(N(C)C)C5)CC4)(CC2)CC3)cc1C` (stereo partly drawn) [Compound 2.16, 4-((4-(2-(tert-Butyl)oxazol-4-yl)pyridin-2-yl)((4-(4-methoxy-3-methylphenyl)bicyclo[2.2.2]octan-1-yl)methyl)carbamoyl)cyclohexyl 3-(dimethylamino)pyrrolidine- trans-1-carboxylate], for which the EC50 is 10 to 1000 nM.

The molecule `COc1ccc(C23CCC(CN(c4cc(-c5coc(C(C)(C)C)n5)ccn4)C(=O)[C@H]4CC[C@H](OC(=O)N5CC(OCCO)C5)CC4)(CC2)CC3)cc1C` [Compound 2.14, 4-((4-(2-(tert-Butyl)oxazol-4-yl)pyridin-2-yl)((4-(4-methoxy-3-methylphenyl)bicyclo[2.2.2]octan-1-yl)methyl)carbamoyl) (trans-cyclohexyl) 3-(2-hydroxyethoxy)azetidine-1-carboxylate] yielded a concentration for a half-maximal effect (EC50) not above 10 nM.

Consider `COc1ccc(C23CCC(CN(c4cc(-c5coc(C(C)(C)C)n5)ccn4)C(=O)[C@H]4CC[C@H](OC(=O)N5CCC(O)CC5)CC4)(CC2)CC3)cc1C` [Compound 2.17, 4-((4-(2-(tert-Butyl)oxazol-4-yl)pyridin-2-yl)((4-(4-methoxy-3-methylphenyl)bicyclo[2.2.2]octan-1-yl)methyl)carbamoyl)cyclohexyl 4-hydroxypiperidine- trans-1-carboxylate], for which the EC50 is not above 10 nM.

In turn, `COc1ccc(C23CCC(CN(c4cc(-c5cnn(C(C)(C)C)c5)ccn4)C(=O)[C@H]4CC[C@H](OC(=O)N5CCC(N(C)C)C5)CC4)(CC2)CC3)cc1C` (stereo partly drawn) [Compound 2.26, 4-((4-(1-(tert-Butyl)-1H-pyrazol-4-yl)pyridin-2-yl)((4-(4-methoxy-3-methylphenyl)bicyclo[2.2.2]octan-1-yl)methyl)carbamoyl)cyclohexyl 3-(dimethylamino)pyrrolidine- trans-1-carboxylate] yielded an EC50 not above 10 nM.

The molecule `COc1ccc(C23CCC(CN(c4cc(-c5coc(C(C)(C)C)n5)ccn4)C(=O)[C@H]4CC[C@H](OC(=O)N5CC(S(C)(=O)=O)C5)CC4)(CC2)CC3)cc1C` [Compound 2.13, 4-((4-(2-(tert-Butyl)oxazol-4-yl)pyridin-2-yl)((4-(4-methoxy-3-methylphenyl)bicyclo[2.2.2]octan-1-yl)methyl)carbamoyl) (trans-cyclohexyl) 3-(methylsulfonyl)azetidine-1-carboxylate] registered an EC50 not above 10 nM.

On to `COc1c(C)cc(C23CCC(CN(c4nccc(-c5cnn(C(C)(C)C)c5)n4)C(=O)[C@H]4CC[C@H](OC(=O)N5CC(O)C5)CC4)(CC2)CC3)cc1C` [Compound 3.15, 4-((4-(1-(tert-Butyl)-1H-pyrazol-4-yl)pyrimidin-2-yl)((4-(4-methoxy-3,5-dimethylphenyl)bicyclo[2.2.2]octan-1-yl)methyl)carbamoyl) (trans-cyclohexyl) 3-hydroxyazetidine-1-carboxylate], for which the EC50 was in the range of 10 to 1000 nM.

For `COc1ccc(C23CCC(CN(c4cc(-c5cnn(C(C)(C)C)c5)ccn4)C(=O)[C@H]4CC[C@H](OC(=O)N5CCC(O)CC5)CC4)(CC2)CC3)cc1C` [Compound 2.27, 4-((4-(1-(tert-Butyl)-1H-pyrazol-4-yl)pyridin-2-yl)((4-(4-methoxy-3-methylphenyl)bicyclo[2.2.2]octan-1-yl)methyl)carbamoyl)cyclohexyl 4-hydroxypiperidine-trans-1-carboxylate], the EC50 was not above 10 nM.

For the molecule `COc1ccc(C23CCC(CN(c4cc(-c5cnn(C(C)(C)C)c5)c(F)cn4)C(=O)[C@H]4CC[C@H](OC(=O)N5CC(O)C5)CC4)(CC2)CC3)cc1C` [Compound 1.12, 4-((4-(1-(tert-Butyl)-1H-pyrazol-4-yl)-5-fluoropyridin-2-yl)((4-(4-methoxy-3-methylphenyl)bicyclo[2.2.2]octan-1-yl)methyl)carbamoyl) (trans-cyclohexyl) 3-hydroxyazetidine-1-carboxylate], the EC50 is not above 10 nM.

As to `COc1ccc([C@H]2CC[C@H](CN(c3cc(-c4coc(C(C)(C)C)n4)ccn3)C(=O)[C@H]3CC[C@H](OC(=O)N4CC(O)C4)CC3)CC2)cc1C` [Compound 1.04, trans-4-((4-(2-(tert-Butyl)oxazol-4-yl)pyridin-2-yl)(((trans)-4-(4-methoxy-3-methylphenyl)cyclohexyl)methyl)carbamoyl) cyclohexyl 3-hydroxyazetidine-1-carboxylate], the EC50 is 10 to 1000 nM.

Consider `COc1ccc(C23CCC(CN(c4cc(-c5cnn(C(C)(C)C)c5)ccn4)C(=O)[C@H]4CC[C@H](OC(=O)N5CC(C)(O)C5)CC4)(CC2)CC3)cc1C` [Compound 2.22, 4-((4-(1-(tert-Butyl)-1H-pyrazol-4-yl)pyridin-2-yl)((4-(4-methoxy-3-methylphenyl)bicyclo[2.2.2]octan-1-yl)methyl)carbamoyl) (trans-cyclohexyl) 3-hydroxy-3-methylazetidine-1-carboxylate], for which the EC50 is not above 10 nM.

(Values after US11773094B2, “Farnesoid X receptor agonists and uses thereof” (Metacrine, Inc., priority 2018, dated 2023).)
